{"source": "the NIST ThermoML archive (doi:10.1021/acs.jced.5b00544)", "experiment": "mean ionic activity coefficient (dimensionless); mn = molality of the nth substance listed, in mol/kg", "conditions": "101 kPa, Liquid", "note": "Numbers after ± are expanded uncertainties."}
{"smiles": "[Cl-].[Na+]", "note": "[sodium chloride] + O", "values": [{"measurement": "mean ionic activity coefficient", "setting": "273.15 K, m1 = 0.1", "value": "0.781 ± 0.05"}, {"measurement": "mean ionic activity coefficient", "setting": "273.15 K, m1 = 0.2", "value": "0.734 ± 0.05"}, {"measurement": "mean ionic activity coefficient", "setting": "273.15 K, m1 = 0.25", "value": "0.719 ± 0.05"}, {"measurement": "mean ionic activity coefficient", "setting": "273.15 K, m1 = 0.5", "value": "0.672 ± 0.05"}, {"measurement": "mean ionic activity coefficient", "setting": "273.15 K, m1 = 0.7", "value": "0.651 ± 0.05"}, {"measurement": "mean ionic activity coefficient", "setting": "273.15 K, m1 = 0.75", "value": "0.646 ± 0.05"}, {"measurement": "mean ionic activity coefficient", "setting": "273.15 K, m1 = 1", "value": "0.629 ± 0.05"}, {"measurement": "mean ionic activity coefficient", "setting": "283.15 K, m1 = 0.1", "value": "0.78 ± 0.05"}, {"measurement": "mean ionic activity coefficient", "setting": "283.15 K, m1 = 0.2", "value": "0.735 ± 0.05"}, {"measurement": "mean ionic activity coefficient", "setting": "283.15 K, m1 = 0.25", "value": "0.72 ± 0.05"}, {"measurement": "mean ionic activity coefficient", "setting": "283.15 K, m1 = 0.5", "value": "0.677 ± 0.05"}, {"measurement": "mean ionic activity coefficient", "setting": "283.15 K, m1 = 0.7", "value": "0.658 ± 0.05"}, {"measurement": "mean ionic activity coefficient", "setting": "283.15 K, m1 = 0.75", "value": "0.655 ± 0.05"}, {"measurement": "mean ionic activity coefficient", "setting": "283.15 K, m1 = 1", "value": "0.641 ± 0.05"}, {"measurement": "mean ionic activity coefficient", "setting": "293.15 K, m1 = 0.1", "value": "0.779 ± 0.05"}, {"measurement": "mean ionic activity coefficient", "setting": "293.15 K, m1 = 0.2", "value": "0.735 ± 0.05"}, {"measurement": "mean ionic activity coefficient", "setting": "293.15 K, m1 = 0.25", "value": "0.721 ± 0.05"}, {"measurement": "mean ionic activity coefficient", "setting": "293.15 K, m1 = 0.5", "value": "0.681 ± 0.05"}, {"measurement": "mean ionic activity coefficient", "setting": "293.15 K, m1 = 0.7", "value": "0.665 ± 0.05"}, {"measurement": "mean ionic activity coefficient", "setting": "293.15 K, m1 = 0.75", "value": "0.662 ± 0.05"}, {"measurement": "mean ionic activity coefficient", "setting": "293.15 K, m1 = 1", "value": "0.653 ± 0.05"}, {"measurement": "mean ionic activity coefficient", "setting": "303.15 K, m1 = 0.1", "value": "0.777 ± 0.05"}, {"measurement": "mean ionic activity coefficient", "setting": "303.15 K, m1 = 0.2", "value": "0.732 ± 0.05"}, {"measurement": "mean ionic activity coefficient", "setting": "303.15 K, m1 = 0.25", "value": "0.718 ± 0.05"}, {"measurement": "mean ionic activity coefficient", "setting": "303.15 K, m1 = 0.5", "value": "0.68 ± 0.05"}, {"measurement": "mean ionic activity coefficient", "setting": "303.15 K, m1 = 0.7", "value": "0.666 ± 0.05"}, {"measurement": "mean ionic activity coefficient", "setting": "303.15 K, m1 = 0.75", "value": "0.663 ± 0.05"}, {"measurement": "mean ionic activity coefficient", "setting": "303.15 K, m1 = 1", "value": "0.655 ± 0.05"}, {"measurement": "mean ionic activity coefficient", "setting": "313.15 K, m1 = 0.1", "value": "0.774 ± 0.05"}, {"measurement": "mean ionic activity coefficient", "setting": "313.15 K, m1 = 0.2", "value": "0.729 ± 0.05"}, {"measurement": "mean ionic activity coefficient", "setting": "313.15 K, m1 = 0.25", "value": "0.715 ± 0.05"}, {"measurement": "mean ionic activity coefficient", "setting": "313.15 K, m1 = 0.5", "value": "0.678 ± 0.05"}, {"measurement": "mean ionic activity coefficient", "setting": "313.15 K, m1 = 0.7", "value": "0.664 ± 0.05"}, {"measurement": "mean ionic activity coefficient", "setting": "313.15 K, m1 = 0.75", "value": "0.662 ± 0.05"}, {"measurement": "mean ionic activity coefficient", "setting": "313.15 K, m1 = 1", "value": "0.655 ± 0.05"}, {"measurement": "mean ionic activity coefficient", "setting": "323.15 K, m1 = 0.1", "value": "0.77 ± 0.05"}, {"measurement": "mean ionic activity coefficient", "setting": "323.15 K, m1 = 0.2", "value": "0.725 ± 0.05"}, {"measurement": "mean ionic activity coefficient", "setting": "323.15 K, m1 = 0.25", "value": "0.711 ± 0.05"}, {"measurement": "mean ionic activity coefficient", "setting": "323.15 K, m1 = 0.5", "value": "0.674 ± 0.05"}, {"measurement": "mean ionic activity coefficient", "setting": "323.15 K, m1 = 0.7", "value": "0.66 ± 0.05"}, {"measurement": "mean ionic activity coefficient", "setting": "323.15 K, m1 = 0.75", "value": "0.658 ± 0.05"}, {"measurement": "mean ionic activity coefficient", "setting": "323.15 K, m1 = 1", "value": "0.652 ± 0.05"}, {"measurement": "mean ionic activity coefficient", "setting": "333.15 K, m1 = 0.1", "value": "0.766 ± 0.05"}, {"measurement": "mean ionic activity coefficient", "setting": "333.15 K, m1 = 0.2", "value": "0.72 ± 0.05"}, {"measurement": "mean ionic activity coefficient", "setting": "333.15 K, m1 = 0.25", "value": "0.706 ± 0.05"}, {"measurement": "mean ionic activity coefficient", "setting": "333.15 K, m1 = 0.5", "value": "0.667 ± 0.05"}, {"measurement": "mean ionic activity coefficient", "setting": "333.15 K, m1 = 0.7", "value": "0.653 ± 0.05"}, {"measurement": "mean ionic activity coefficient", "setting": "333.15 K, m1 = 0.75", "value": "0.651 ± 0.05"}, {"measurement": "mean ionic activity coefficient", "setting": "333.15 K, m1 = 1", "value": "0.644 ± 0.05"}, {"measurement": "mean ionic activity coefficient", "setting": "343.15 K, m1 = 0.1", "value": "0.761 ± 0.05"}, {"measurement": "mean ionic activity coefficient", "setting": "343.15 K, m1 = 0.2", "value": "0.713 ± 0.05"}, {"measurement": "mean ionic activity coefficient", "setting": "343.15 K, m1 = 0.25", "value": "0.699 ± 0.05"}, {"measurement": "mean ionic activity coefficient", "setting": "343.15 K, m1 = 0.5", "value": "0.659 ± 0.05"}, {"measurement": "mean ionic activity coefficient", "setting": "343.15 K, m1 = 0.7", "value": "0.644 ± 0.05"}, {"measurement": "mean ionic activity coefficient", "setting": "343.15 K, m1 = 0.75", "value": "0.641 ± 0.05"}, {"measurement": "mean ionic activity coefficient", "setting": "343.15 K, m1 = 1", "value": "0.633 ± 0.05"}, {"measurement": "mean ionic activity coefficient", "setting": "353.15 K, m1 = 0.1", "value": "0.752 ± 0.05"}, {"measurement": "mean ionic activity coefficient", "setting": "353.15 K, m1 = 0.2", "value": "0.703 ± 0.05"}, {"measurement": "mean ionic activity coefficient", "setting": "353.15 K, m1 = 0.25", "value": "0.688 ± 0.05"}, {"measurement": "mean ionic activity coefficient", "setting": "353.15 K, m1 = 0.5", "value": "0.647 ± 0.05"}, {"measurement": "mean ionic activity coefficient", "setting": "353.15 K, m1 = 0.7", "value": "0.633 ± 0.05"}, {"measurement": "mean ionic activity coefficient", "setting": "353.15 K, m1 = 0.75", "value": "0.631 ± 0.05"}, {"measurement": "mean ionic activity coefficient", "setting": "353.15 K, m1 = 1", "value": "0.624 ± 0.05"}]}
{"smiles": "[Cl-].[K+]", "note": "[potassium chloride] + O", "values": [{"measurement": "mean ionic activity coefficient", "setting": "273.15 K, m1 = 0.1", "value": "0.772 ± 0.05"}, {"measurement": "mean ionic activity coefficient", "setting": "273.15 K, m1 = 0.2", "value": "0.719 ± 0.05"}, {"measurement": "mean ionic activity coefficient", "setting": "273.15 K, m1 = 0.5", "value": "0.643 ± 0.05"}, {"measurement": "mean ionic activity coefficient", "setting": "273.15 K, m1 = 1", "value": "0.581 ± 0.05"}, {"measurement": "mean ionic activity coefficient", "setting": "283.15 K, m1 = 0.1", "value": "0.771 ± 0.05"}, {"measurement": "mean ionic activity coefficient", "setting": "283.15 K, m1 = 0.2", "value": "0.719 ± 0.05"}, {"measurement": "mean ionic activity coefficient", "setting": "283.15 K, m1 = 0.5", "value": "0.647 ± 0.05"}, {"measurement": "mean ionic activity coefficient", "setting": "283.15 K, m1 = 1", "value": "0.592 ± 0.05"}, {"measurement": "mean ionic activity coefficient", "setting": "293.15 K, m1 = 0.1", "value": "0.77 ± 0.05"}, {"measurement": "mean ionic activity coefficient", "setting": "293.15 K, m1 = 0.2", "value": "0.719 ± 0.05"}, {"measurement": "mean ionic activity coefficient", "setting": "293.15 K, m1 = 0.5", "value": "0.651 ± 0.05"}, {"measurement": "mean ionic activity coefficient", "setting": "293.15 K, m1 = 1", "value": "0.602 ± 0.05"}, {"measurement": "mean ionic activity coefficient", "setting": "303.15 K, m1 = 0.1", "value": "0.767 ± 0.05"}, {"measurement": "mean ionic activity coefficient", "setting": "303.15 K, m1 = 0.2", "value": "0.716 ± 0.05"}, {"measurement": "mean ionic activity coefficient", "setting": "303.15 K, m1 = 0.5", "value": "0.649 ± 0.05"}, {"measurement": "mean ionic activity coefficient", "setting": "303.15 K, m1 = 1", "value": "0.602 ± 0.05"}, {"measurement": "mean ionic activity coefficient", "setting": "313.15 K, m1 = 0.1", "value": "0.764 ± 0.05"}, {"measurement": "mean ionic activity coefficient", "setting": "313.15 K, m1 = 0.2", "value": "0.714 ± 0.05"}, {"measurement": "mean ionic activity coefficient", "setting": "313.15 K, m1 = 0.5", "value": "0.647 ± 0.05"}, {"measurement": "mean ionic activity coefficient", "setting": "313.15 K, m1 = 1", "value": "0.603 ± 0.05"}, {"measurement": "mean ionic activity coefficient", "setting": "323.15 K, m1 = 0.1", "value": "0.761 ± 0.05"}, {"measurement": "mean ionic activity coefficient", "setting": "323.15 K, m1 = 0.2", "value": "0.71 ± 0.05"}, {"measurement": "mean ionic activity coefficient", "setting": "323.15 K, m1 = 0.5", "value": "0.644 ± 0.05"}, {"measurement": "mean ionic activity coefficient", "setting": "323.15 K, m1 = 1", "value": "0.601 ± 0.05"}, {"measurement": "mean ionic activity coefficient", "setting": "333.15 K, m1 = 0.1", "value": "0.757 ± 0.05"}, {"measurement": "mean ionic activity coefficient", "setting": "333.15 K, m1 = 0.2", "value": "0.705 ± 0.05"}, {"measurement": "mean ionic activity coefficient", "setting": "333.15 K, m1 = 0.5", "value": "0.638 ± 0.05"}, {"measurement": "mean ionic activity coefficient", "setting": "333.15 K, m1 = 1", "value": "0.596 ± 0.05"}, {"measurement": "mean ionic activity coefficient", "setting": "343.15 K, m1 = 0.1", "value": "0.752 ± 0.05"}, {"measurement": "mean ionic activity coefficient", "setting": "343.15 K, m1 = 0.2", "value": "0.699 ± 0.05"}, {"measurement": "mean ionic activity coefficient", "setting": "343.15 K, m1 = 0.5", "value": "0.632 ± 0.05"}, {"measurement": "mean ionic activity coefficient", "setting": "343.15 K, m1 = 1", "value": "0.588 ± 0.05"}]}
